For 3 compounds, residual activity results are on record in ChEMBL document CHEMBL1152560, “Substituted 2-arylbenzothiazoles as kinase inhibitors: hit-to-lead optimization” (Bioorg Med Chem, 2009).

Test [1] addresses Interferon-induced, double-stranded RNA-activated protein kinase (Homo sapiens) (UniProt P19525). Kind of test: Residual activity of EIF2AK2 at 0.1 uM by microplate scintillation counting.
The target in test [2] is High affinity nerve growth factor receptor (Homo sapiens) (UniProt P04629). Kind of test: Residual activity of TRK-A at 0.1 uM by microplate scintillation counting.
Sequence of High affinity nerve growth factor receptor (Homo sapiens) (P04629 33-796 limits assumed): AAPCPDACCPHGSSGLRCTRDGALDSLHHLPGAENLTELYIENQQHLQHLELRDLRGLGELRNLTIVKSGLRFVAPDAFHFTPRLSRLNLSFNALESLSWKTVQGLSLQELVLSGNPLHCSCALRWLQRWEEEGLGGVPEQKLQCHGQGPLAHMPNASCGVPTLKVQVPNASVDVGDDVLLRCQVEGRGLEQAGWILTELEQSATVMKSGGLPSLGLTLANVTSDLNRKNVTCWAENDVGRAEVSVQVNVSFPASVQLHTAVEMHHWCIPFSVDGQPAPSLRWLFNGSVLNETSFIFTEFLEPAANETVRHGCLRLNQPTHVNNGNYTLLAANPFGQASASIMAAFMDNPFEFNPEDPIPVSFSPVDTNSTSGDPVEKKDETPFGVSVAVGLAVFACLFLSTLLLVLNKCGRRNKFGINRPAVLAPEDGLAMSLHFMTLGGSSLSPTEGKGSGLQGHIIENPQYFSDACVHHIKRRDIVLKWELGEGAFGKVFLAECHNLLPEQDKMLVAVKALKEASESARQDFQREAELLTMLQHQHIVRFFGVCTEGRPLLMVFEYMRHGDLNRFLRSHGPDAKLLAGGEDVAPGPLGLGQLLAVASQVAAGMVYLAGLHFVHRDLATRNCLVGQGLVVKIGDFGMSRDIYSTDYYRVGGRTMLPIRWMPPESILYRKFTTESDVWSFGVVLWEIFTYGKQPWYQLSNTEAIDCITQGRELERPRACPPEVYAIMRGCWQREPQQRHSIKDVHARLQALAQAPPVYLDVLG
The target of test [3] is T1, Ephrin type-B receptor 4 (Homo sapiens) (UniProt P54760).
T1 sequence (whole entry): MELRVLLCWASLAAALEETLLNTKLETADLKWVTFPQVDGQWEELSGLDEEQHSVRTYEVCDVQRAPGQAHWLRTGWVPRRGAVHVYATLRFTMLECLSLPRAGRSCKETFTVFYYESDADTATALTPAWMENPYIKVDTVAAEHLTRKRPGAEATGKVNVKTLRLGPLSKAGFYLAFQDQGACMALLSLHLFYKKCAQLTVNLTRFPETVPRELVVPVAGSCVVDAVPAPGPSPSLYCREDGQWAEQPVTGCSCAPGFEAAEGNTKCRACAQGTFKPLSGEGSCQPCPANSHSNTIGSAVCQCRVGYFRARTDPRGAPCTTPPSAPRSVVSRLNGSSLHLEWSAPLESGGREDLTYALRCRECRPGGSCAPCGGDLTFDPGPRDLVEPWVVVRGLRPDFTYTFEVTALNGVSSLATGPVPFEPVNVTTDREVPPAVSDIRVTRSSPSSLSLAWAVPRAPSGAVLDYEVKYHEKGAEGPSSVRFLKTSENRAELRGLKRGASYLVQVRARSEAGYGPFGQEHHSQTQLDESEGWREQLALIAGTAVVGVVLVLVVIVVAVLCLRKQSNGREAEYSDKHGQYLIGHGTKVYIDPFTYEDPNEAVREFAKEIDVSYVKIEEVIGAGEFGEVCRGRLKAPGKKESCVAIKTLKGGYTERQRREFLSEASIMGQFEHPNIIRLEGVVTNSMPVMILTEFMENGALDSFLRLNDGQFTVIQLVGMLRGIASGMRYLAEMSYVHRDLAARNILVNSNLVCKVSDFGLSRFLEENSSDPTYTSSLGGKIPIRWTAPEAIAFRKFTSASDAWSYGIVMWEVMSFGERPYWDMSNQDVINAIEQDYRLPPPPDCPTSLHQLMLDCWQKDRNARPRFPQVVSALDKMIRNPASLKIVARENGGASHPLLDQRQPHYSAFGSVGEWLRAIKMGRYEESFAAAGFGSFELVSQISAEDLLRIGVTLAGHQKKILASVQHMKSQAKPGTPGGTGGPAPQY
Kind of test: Residual activity of EPHB4 at 1 uM by microplate scintillation counting.

In test [4] the target is Serine/threonine-protein kinase N2 (Homo sapiens) (UniProt Q16513). Kind of test: Residual activity of PRK2 at 0.1 uM by microplate scintillation counting.
Sequence of Serine/threonine-protein kinase N2 (Homo sapiens) (Q16513 whole entry, looked up): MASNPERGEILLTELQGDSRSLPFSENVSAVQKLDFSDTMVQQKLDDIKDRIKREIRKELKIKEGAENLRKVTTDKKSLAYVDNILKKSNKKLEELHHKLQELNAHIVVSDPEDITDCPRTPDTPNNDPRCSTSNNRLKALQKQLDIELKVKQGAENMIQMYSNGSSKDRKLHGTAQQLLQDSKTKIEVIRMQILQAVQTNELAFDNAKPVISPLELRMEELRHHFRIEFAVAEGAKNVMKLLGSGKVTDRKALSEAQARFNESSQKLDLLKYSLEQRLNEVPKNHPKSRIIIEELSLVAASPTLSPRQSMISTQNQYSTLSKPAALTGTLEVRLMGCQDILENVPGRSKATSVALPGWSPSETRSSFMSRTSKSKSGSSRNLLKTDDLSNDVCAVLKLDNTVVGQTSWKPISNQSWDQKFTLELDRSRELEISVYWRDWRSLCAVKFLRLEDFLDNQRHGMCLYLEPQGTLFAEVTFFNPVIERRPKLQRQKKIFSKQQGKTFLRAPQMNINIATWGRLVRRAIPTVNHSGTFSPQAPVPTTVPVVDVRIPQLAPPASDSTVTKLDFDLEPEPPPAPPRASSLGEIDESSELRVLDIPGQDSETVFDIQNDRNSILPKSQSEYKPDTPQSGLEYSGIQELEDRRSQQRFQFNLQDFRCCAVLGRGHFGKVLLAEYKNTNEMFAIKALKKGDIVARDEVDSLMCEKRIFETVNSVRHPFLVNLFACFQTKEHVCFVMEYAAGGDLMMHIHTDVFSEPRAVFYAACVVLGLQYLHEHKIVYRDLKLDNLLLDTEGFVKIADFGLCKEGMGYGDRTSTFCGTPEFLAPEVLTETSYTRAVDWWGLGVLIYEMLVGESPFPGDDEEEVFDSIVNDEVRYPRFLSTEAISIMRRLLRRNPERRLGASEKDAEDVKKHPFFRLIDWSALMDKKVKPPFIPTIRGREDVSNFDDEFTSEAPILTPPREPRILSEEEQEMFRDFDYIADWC
Test [5] addresses Tyrosine-protein kinase BTK (Homo sapiens) (UniProt Q06187). Kind of test: Residual activity of BTK at 0.1 uM by microplate scintillation counting.
Test [6] concerns the target Casein kinase I isoform gamma-2 (Homo sapiens) (UniProt P78368). Kind of test: Residual activity of CK1gamma2 at 10 uM by microplate scintillation counting.
A short description of test [7]: Residual activity of PKA at 0.1 uM by microplate scintillation counting.
Test [8] concerns the target T2, Serine/threonine-protein kinase D1 (Homo sapiens) (UniProt Q15139).
T2 sequence (whole entry): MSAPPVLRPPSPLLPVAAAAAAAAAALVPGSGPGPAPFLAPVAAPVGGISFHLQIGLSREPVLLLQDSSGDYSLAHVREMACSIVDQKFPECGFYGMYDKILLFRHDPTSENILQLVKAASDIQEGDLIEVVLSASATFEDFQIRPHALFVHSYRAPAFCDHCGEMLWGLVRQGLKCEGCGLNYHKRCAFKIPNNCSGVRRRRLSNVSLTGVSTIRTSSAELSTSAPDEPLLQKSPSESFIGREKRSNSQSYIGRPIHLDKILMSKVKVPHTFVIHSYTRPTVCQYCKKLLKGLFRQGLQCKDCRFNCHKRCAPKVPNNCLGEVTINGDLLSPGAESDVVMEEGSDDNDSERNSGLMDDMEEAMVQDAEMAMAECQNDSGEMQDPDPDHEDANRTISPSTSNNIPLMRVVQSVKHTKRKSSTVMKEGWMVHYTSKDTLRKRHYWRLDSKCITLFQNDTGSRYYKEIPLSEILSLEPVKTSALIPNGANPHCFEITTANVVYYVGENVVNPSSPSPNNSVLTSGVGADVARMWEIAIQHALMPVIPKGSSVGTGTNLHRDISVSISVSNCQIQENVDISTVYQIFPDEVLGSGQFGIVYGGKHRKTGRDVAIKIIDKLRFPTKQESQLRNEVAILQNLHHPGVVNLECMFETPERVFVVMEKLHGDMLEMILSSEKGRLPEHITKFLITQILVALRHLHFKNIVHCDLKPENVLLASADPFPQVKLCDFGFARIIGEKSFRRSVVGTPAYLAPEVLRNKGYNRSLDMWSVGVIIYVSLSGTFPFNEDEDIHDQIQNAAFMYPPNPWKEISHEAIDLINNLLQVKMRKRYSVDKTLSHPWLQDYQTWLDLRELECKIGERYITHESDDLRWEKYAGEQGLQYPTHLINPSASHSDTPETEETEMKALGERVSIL
Kind of test: Residual activity of PKCmu at 1 uM by microplate scintillation counting.

Test [9] concerns the target T3, Serine/threonine-protein kinase TBK1 (Homo sapiens) (UniProt Q9UHD2).
T3 sequence (whole entry): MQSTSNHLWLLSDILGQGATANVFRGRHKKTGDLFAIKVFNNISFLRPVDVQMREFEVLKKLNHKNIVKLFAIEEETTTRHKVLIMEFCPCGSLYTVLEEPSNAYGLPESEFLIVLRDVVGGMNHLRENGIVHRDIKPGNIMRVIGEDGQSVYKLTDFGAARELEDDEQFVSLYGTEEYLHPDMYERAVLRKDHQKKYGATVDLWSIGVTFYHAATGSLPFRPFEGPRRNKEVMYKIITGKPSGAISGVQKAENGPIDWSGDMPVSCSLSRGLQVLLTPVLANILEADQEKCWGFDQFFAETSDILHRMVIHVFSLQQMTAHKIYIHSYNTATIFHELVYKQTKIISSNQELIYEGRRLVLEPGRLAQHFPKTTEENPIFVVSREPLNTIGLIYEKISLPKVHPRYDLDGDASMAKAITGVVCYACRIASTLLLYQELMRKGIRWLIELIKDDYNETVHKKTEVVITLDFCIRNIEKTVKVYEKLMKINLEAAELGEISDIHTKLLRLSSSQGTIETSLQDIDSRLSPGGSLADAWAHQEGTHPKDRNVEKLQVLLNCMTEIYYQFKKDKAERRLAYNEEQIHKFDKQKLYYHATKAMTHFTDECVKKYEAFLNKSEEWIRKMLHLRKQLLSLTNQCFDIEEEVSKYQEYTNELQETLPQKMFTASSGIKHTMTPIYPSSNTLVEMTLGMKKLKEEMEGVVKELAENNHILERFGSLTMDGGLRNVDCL
Kind of test: Residual activity of TBK1 at 0.1 uM by microplate scintillation counting.

Sequence of Casein kinase I isoform gamma-2 (Homo sapiens) (P78368 whole entry, looked up, canonical isoform): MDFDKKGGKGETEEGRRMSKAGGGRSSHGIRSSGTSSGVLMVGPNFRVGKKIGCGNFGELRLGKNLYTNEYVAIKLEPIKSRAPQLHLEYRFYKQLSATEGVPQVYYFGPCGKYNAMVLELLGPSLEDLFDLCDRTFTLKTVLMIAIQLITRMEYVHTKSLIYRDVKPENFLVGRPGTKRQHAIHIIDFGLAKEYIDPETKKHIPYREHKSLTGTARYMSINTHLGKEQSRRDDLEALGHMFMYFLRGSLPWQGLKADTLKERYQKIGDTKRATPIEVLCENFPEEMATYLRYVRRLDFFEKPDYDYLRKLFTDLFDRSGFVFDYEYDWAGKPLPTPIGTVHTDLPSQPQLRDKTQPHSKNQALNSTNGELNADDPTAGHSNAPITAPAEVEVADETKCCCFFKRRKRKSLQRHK
Sequence of Interferon-induced, double-stranded RNA-activated protein kinase (Homo sapiens) (P19525 whole entry): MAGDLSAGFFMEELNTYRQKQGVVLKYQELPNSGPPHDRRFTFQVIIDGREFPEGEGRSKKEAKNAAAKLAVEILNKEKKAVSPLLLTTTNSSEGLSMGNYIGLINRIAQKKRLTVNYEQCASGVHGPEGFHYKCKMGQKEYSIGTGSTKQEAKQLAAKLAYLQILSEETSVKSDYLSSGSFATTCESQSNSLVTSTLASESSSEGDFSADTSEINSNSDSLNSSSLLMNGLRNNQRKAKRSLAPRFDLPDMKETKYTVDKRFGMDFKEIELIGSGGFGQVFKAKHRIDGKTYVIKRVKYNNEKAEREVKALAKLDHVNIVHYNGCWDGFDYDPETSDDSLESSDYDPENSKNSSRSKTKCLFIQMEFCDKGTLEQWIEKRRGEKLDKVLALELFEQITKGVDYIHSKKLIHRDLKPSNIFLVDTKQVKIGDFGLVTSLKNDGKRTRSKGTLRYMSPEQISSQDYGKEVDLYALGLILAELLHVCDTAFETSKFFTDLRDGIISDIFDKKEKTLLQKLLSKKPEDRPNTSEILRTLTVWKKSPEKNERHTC
Sequence of Tyrosine-protein kinase BTK (Homo sapiens) (Q06187 whole entry, canonical isoform): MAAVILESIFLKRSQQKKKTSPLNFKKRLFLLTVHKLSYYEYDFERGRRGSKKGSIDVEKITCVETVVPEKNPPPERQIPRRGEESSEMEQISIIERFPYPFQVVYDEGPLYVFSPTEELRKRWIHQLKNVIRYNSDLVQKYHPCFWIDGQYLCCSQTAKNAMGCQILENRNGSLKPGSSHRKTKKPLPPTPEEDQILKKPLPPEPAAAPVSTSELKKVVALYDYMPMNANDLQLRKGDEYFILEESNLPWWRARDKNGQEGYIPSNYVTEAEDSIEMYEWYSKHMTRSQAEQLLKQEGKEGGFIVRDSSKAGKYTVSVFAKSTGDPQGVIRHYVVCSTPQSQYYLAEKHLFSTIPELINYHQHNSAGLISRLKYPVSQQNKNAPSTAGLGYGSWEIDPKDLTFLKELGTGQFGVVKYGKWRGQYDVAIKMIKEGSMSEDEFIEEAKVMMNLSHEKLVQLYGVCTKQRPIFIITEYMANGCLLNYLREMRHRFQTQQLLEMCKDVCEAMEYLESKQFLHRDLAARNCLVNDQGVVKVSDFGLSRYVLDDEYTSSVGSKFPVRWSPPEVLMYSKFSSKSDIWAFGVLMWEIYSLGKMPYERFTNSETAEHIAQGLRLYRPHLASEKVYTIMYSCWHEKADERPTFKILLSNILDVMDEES

As to `COc1cc2c(Oc3ccc(-c4nc5ccccc5s4)cc3)ncnc2cc1OCCCN1CCN(C)CC1`, the residual activity in [1] turned out to be 70%; in test [2], 104%; in test [3], 127%; in [4] it was 65%; in [5], 100%; in test [6], 217%. Further, the results for the residual activity in [7], in [8] and in [9] were 89%, 89% and 79%, respectively.
On to `COc1cc2c(Oc3ccc(-c4nc5ccccc5s4)cc3)ncnc2cc1OCCCN1CCCC1`, for which the residual activity in test [1] was found to be 82%; in [2], 83%; in [3], 127%; in test [4], 99%; in test [5], 106%; in [6], 198%. Also, the residual activity came out at 95% in test [7], 100% in test [8] and 94% in test [9].
For the compound `COc1cc2c(Oc3ccc(-c4nc5ccccc5s4)cc3F)ncnc2cc1OCCCN1CCN(C)CC1`, the residual activity in test [1] worked out at 95%; in [2], 88%; in [3], 114%; in [4], 72%; in [5], 101%; in test [6], 226%. In addition, the residual activity is 98% in [7], 89% in test [8] and 94% in test [9].
